The results in this text go back to ChEMBL document CHEMBL5512636, “Novel 6-hydroxybenzothiazol-2-carboxamides as potent and selective monoamine oxidase B inhibitors endowed with neuroprotective activity” (Eur J Med Chem, 2024).

Series [1] concerns the target T1, Amine oxidase [flavin-containing] A (Homo sapiens, UniProt P21397).
T1 sequence (P21397 whole entry): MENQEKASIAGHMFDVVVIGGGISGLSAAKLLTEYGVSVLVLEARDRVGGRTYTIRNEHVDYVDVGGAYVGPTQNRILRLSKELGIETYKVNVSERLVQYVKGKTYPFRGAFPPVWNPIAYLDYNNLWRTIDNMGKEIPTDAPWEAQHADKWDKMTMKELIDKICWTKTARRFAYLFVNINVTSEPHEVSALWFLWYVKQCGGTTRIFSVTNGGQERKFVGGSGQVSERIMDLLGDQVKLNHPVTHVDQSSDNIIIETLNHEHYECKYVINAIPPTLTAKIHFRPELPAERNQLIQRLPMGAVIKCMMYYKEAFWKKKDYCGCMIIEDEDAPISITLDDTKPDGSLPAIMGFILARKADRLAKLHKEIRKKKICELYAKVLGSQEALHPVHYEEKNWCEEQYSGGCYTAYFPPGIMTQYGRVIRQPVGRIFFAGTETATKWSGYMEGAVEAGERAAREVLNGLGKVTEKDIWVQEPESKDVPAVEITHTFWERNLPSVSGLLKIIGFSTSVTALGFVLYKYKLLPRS
The series is described as follows: Inhibition of recombinant human MAO-A expressed in baculovirus infected insect cells using kynuramine as substrate at 10 uM by fluorescence based method relative to control. As to conditions: Insect cell.

Series [2] has as its target T1, Amine oxidase [flavin-containing] A. As to the kind of experiment: biochemical.
Description: Inhibition of recombinant human MAO-A expressed in baculovirus infected insect cells using kynuramine as substrate by fluorescence based method
For series [3], the target named is T2, Amine oxidase [flavin-containing] B (Homo sapiens, UniProt P27338).
T2 sequence (P27338 whole entry): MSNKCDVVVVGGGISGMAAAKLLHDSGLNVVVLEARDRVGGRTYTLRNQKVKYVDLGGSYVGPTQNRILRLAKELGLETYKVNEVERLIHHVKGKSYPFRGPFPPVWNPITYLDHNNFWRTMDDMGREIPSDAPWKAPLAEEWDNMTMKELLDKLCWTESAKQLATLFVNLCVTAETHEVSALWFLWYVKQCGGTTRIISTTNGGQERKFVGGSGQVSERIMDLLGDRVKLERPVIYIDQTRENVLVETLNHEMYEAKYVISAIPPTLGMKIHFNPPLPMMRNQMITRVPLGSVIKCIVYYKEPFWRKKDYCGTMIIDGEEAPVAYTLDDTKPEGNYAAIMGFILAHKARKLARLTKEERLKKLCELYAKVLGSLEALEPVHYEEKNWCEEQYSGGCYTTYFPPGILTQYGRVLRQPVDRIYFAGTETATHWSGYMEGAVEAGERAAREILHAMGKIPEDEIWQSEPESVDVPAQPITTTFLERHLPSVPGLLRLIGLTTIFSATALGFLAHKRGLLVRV
The series is described as follows: Inhibition of recombinant human MAO-B expressed in baculovirus infected insect cells using kynuramine as substrate at 10 uM by fluorescence based method relative to control. As to conditions: Insect cell.

Series [4] is described as follows: Permeability of compound by PAMPA. Background: In PAMPA a lipid-coated filter parts donor from acceptor wells.
The target in series [5] is T3, Amine oxidase [flavin-containing] B (Rattus norvegicus, UniProt P19643).
T3 sequence (P19643 whole entry): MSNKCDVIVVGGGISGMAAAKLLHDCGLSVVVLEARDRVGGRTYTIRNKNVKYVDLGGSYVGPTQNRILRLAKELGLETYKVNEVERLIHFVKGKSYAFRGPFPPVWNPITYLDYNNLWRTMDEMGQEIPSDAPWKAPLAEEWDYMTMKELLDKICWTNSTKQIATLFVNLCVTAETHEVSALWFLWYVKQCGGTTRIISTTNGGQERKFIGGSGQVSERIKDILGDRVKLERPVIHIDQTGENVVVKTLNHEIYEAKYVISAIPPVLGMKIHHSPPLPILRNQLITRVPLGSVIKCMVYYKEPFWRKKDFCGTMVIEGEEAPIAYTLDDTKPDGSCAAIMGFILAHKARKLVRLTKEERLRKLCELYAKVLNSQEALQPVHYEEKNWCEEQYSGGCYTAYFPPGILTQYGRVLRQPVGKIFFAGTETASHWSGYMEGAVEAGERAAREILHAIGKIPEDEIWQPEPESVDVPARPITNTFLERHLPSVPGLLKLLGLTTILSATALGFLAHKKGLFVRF
As to the kind of experiment: Inhibition of rat brain mitochondria MAO-B using benzylamine as substrate incubated for 30 mins by absorbance based assay.

The target in series [6] is Microtubule-associated protein tau (Homo sapiens, UniProt P10636). The series is described as follows: Inhibition of GFP/RFP-fused tau oligomerization in human SH-SY5Y cells incubated for 2 hrs by FRET assay. The format is cell-based.
Sequence of Microtubule-associated protein tau (P10636 whole entry, the tested form may be a part): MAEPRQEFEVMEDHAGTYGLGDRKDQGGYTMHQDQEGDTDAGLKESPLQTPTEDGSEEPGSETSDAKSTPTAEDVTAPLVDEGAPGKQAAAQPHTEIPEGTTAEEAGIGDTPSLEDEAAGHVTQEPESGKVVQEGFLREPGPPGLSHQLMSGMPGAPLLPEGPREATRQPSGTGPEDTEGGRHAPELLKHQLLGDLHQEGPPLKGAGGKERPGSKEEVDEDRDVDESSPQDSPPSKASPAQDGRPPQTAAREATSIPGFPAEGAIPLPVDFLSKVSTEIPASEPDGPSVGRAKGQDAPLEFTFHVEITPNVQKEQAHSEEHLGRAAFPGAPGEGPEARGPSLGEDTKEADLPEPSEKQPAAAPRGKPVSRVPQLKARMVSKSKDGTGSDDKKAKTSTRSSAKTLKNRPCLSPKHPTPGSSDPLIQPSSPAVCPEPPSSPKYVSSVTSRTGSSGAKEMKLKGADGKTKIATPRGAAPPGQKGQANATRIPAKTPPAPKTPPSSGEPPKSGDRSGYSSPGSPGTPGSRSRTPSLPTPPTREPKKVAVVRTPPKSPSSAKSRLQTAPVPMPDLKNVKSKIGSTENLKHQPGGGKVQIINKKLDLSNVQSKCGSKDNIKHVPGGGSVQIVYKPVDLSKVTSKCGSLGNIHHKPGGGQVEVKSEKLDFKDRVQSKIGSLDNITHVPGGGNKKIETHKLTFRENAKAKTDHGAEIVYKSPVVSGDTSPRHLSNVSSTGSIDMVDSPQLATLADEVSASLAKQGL
Series [7] concerns the target T2, Amine oxidase [flavin-containing] B. As to the kind of experiment: Inhibition of human MAO-B incubated for 30 mins by Amplex Red assay.
The target is the same in series [8]. The series is described as follows: biochemical. The format is cell-based, Insect cell.
Description: Inhibition of recombinant human MAO-B expressed in baculovirus infected insect cells using kynuramine as substrate by fluorescence based method

The structures appear in SMILES notation.

In general, inhibition refers to the drop in the measured response relative to a control, in per cent. As for `Cc1cccc(CNC(=O)c2nc3ccc(O)cc3s2)c1`, the inhibition at 10 µM in series [1] was 19%.
`O=C(NCc1cc(C(F)(F)F)cc(C(F)(F)F)c1)c1nc2ccc(O)cc2s1`: the inhibition at 10 µM in series [1] is 26%.
As a reminder, the IC50 is the point on the concentration scale where inhibition reaches its midpoint. Low values mean greater potency, high ones weaker potency. With `O=C(Nc1nc2ccc(O)cc2s1)C1CCCCC1`, 1920 nM corresponded to half-maximal inhibition in series [2] (IC50). The inhibition at 10 µM in series [1] was over 80%.
Consider `O=C(NCc1ccc(F)cc1F)c1nc2ccc(O)cc2s1`, for which the inhibition at 10 µM in series [1] was found to be 35%.
Regarding `O=C(NCc1cccc(Cl)c1)c1nc2ccc(O)cc2s1`, the inhibition at 10 µM in series [1] was 28%.
Turning to `CC(C)(C)c1ccc(CNC(=O)c2nc3ccc(O)cc3s2)cc1`, the results for the inhibition at 10 µM in series [3] and in series [1] were 44% and 19%, respectively.
`O=C(NCc1cccs1)c1nc2ccc(O)cc2s1`: the inhibition at 10 µM in series [1] was 33%.
As to `COc1ccc2nc(C(=O)NC3CCCCC3)sc2c1`, the IC50 in series [2] worked out at 3820 nM. In series [1], the inhibition at 10 µM was over 60%.
As for `Cc1cc(C)cc(CNC(=O)c2nc3ccc(O)cc3s2)c1`, in series [1], the inhibition at 10 µM amounted to 26%.
With `COc1cccc(CNC(=O)c2nc3ccc(O)cc3s2)c1`, in series [1], the inhibition at 10 µM was 18%.
Same read-out and setting: then `O=C(NCc1ccccc1Cl)c1nc2ccc(O)cc2s1`, with 24%.
Still for that read-out and setting: then `Cc1ccccc1CNC(=O)c1nc2ccc(O)cc2s1`, with 15%.
`COc1ccc(CNC(=O)c2nc3ccc(O)cc3s2)cc1OC`: the inhibition at 10 µM in series [1] was 13%.
With `O=C(NCc1ccc(F)cc1)c1nc2ccc(O)cc2s1`, the inhibition at 10 µM in series [1] is 52%.
For `O=C(NCC#Cc1ccccc1)c1nc2ccc(O)cc2s1`, the inhibition at 10 µM in series [1] was determined as 59%.
On the same count and under the same terms, then `O=C(NCc1ccc(-c2ccccc2)cc1)c1nc2ccc(O)cc2s1`, with 30%.
As usually defined, the Papp is a coefficient for how fast a substance crosses the barrier. A low value points to slow passage. In series [4], `CCn1cc(C(=O)O)c(=O)c2cc(F)c(N3CCNCC3)cc21` [NORFLOXACIN] yielded an apparent permeability (Papp) of 1.25 ×10⁻⁶ cm/s.
As to `O=C(NC1CCCCC1)c1nc2ccccc2s1`, the inhibition at 10 µM in series [1] was 26%.
The same measure, in the same setting: the same measure for `O=C(NC1CCCCC1)c1nc2ccc(O)cc2s1`: 32%; for `O=C(NCC1CCCCC1)c1nc2ccc(O)cc2s1`: 32%.
Take `COc1ccc(CNC(=O)c2nc3ccc(O)cc3s2)c(OC)c1`: the inhibition at 10 µM in series [1] was found to be 26%.
As to `O=C(NCC(c1ccccc1)c1ccccc1)c1nc2ccc(O)cc2s1`, the figures for the inhibition at 10 µM in series [3] and in series [1] were 43% and 13%, respectively.
In the case of `O=C(NCc1ccccc1F)c1nc2ccc(O)cc2s1`, in series [1], the inhibition at 10 µM is 16%.
Still for that read-out and setting: the same measure for `O=C(NCc1ccc([N+](=O)[O-])cc1)c1nc2ccc(O)cc2s1`: 15%.
For `O=C(NCc1cccnc1)c1nc2ccc(O)cc2s1`, the inhibition at 10 µM in series [3] worked out at 48%; in series [1], 28%.
In series [5], `O=C(N/N=C(\c1ccccc1)c1ccc(Cl)cc1)Nc1nc2ccc([N+](=O)[O-])cc2s1` had a half-maximal inhibitory concentration (IC50) of 4 nM.
One may read the EC50 as the midpoint of the concentration-response curve. A high value points to a less potent agent. `O=C(NCCc1ccccc1)c1nc2ccc(O)cc2s1`: it took 10500 nM to reach a half-maximal effect in series [6] (EC50). Further, in series [1], the inhibition at 10 µM was found to be 36%.
With `CCCCCCNC(=O)c1nc2ccc(O)cc2s1`, in series [1], the inhibition at 10 µM came to 37%.
For `O=C(NC1CC1)c1nc2ccc(O)cc2s1`, the inhibition at 10 µM in series [3] is 52%; in series [1] it was 13%.
Take `O=C(NC1CCCC1)c1nc2ccc(O)cc2s1`: in series [1], the inhibition at 10 µM was 35%.
Still for that read-out and setting: the same measure for `COc1cc(CNC(=O)c2nc3ccc(O)cc3s2)cc(OC)c1`: 43%.
With `Cc1ccc(CNC(=O)c2nc3ccc(O)cc3s2)cc1`, the inhibition at 10 µM in series [1] came to 22%.
On the same count and under the same terms, the same measure for `O=C(NCc1ccc(Cl)cc1)c1nc2ccc(O)cc2s1`: 21%.
With `O=C(NCc1ccc(F)c(F)c1)c1nc2ccc(O)cc2s1`, the inhibition at 10 µM in series [1] amounted to 29%.
`COc1ccc(CNC(=O)c2nc3ccc(O)cc3s2)cc1`: the inhibition at 10 µM in series [3] came to 53%; in series [1] it was 22%.
With `COc1cccc(CNC(=O)c2nc3ccc(O)cc3s2)c1OC`, the inhibition at 10 µM in series [1] stood at 11%.
In the case of `O=C(NCCc1cc2ccccc2[nH]1)c1nc2ccc(O)cc2s1`, the 50% effective concentration (EC50) in series [6] stood at 7520 nM. Also, in series [1], the inhibition at 10 µM turned out to be 51%.
As for `O=C(NCc1cccc(F)c1F)c1nc2ccc(O)cc2s1`, in series [1], the inhibition at 10 µM is 19%.
On the same count and under the same terms, then `COc1ccc(CNC(=O)c2nc3ccc(O)cc3s2)cc1F`, with 32%.
In the case of `O=C(NCc1ccco1)c1nc2ccc(O)cc2s1`, the results for the inhibition at 10 µM in series [3] and in series [1] were 41% and 10%, respectively.
On to `O=C(c1nc2ccc(O)cc2s1)N1CCCCC1`, for which the inhibition at 10 µM in series [3] is 31%; in series [1], 16%.
In series [7], `COc1ccc2sc(SC(=O)N/N=C\c3csc([N+](=O)[O-])c3)nc2c1` showed an IC50 of 60 nM.
Compound `O=C(NCc1ccccc1)c1nc2ccc(O)cc2s1` had an IC50 in series [8] of 552 nM. Also, the inhibition at 10 µM in series [1] is 18%.
As for `O=C(c1nc2ccc(O)cc2s1)N1Cc2ccc(Cl)cc2C1`, the inhibition at 10 µM in series [1] was 21%.
Same read-out and setting: the same measure for `COc1ccccc1CNC(=O)c1nc2ccc(O)cc2s1`: 25%.
Turning to `O=C(NCc1ccc(-c2cccs2)cc1)c1nc2ccc(O)cc2s1`, the inhibition at 10 µM was determined as 30% in series [3] and 18% in series [1].
On to `O=C(NCc1cccc(F)c1)c1nc2ccc(O)cc2s1`, for which the inhibition at 10 µM in series [1] stood at 8%.
With `O=C(c1nc2ccc(O)cc2s1)N1CCc2ccccc2C1`, the inhibition at 10 µM in series [1] amounted to 17%.
